Experimental data published in patent publication US7951951B2, “Bicyclic enamino(thio)carbonyl compounds” (Bayer Cropscience AG, priority 2006, dated 2011).

How the values were obtained:
Format in all cases: in vivo
[1] = tested on: green peach aphid (Myzus persicae); experiment: Myzus test (MYZUPE spray treatment); conditions: spray on infested Chinese cabbage discs; for pest or weed control at 500 g/ha: Myzus persicae, in Brassica rapa, 120 h, after 5 days, read-out: Kill rate in % after 5 days; for Kill rate in % after 5 days: 500 g/ha
Method: Myzus Test (MYZUPE Spray Treatment)
(§1) Solvents: 78 parts by weight of acetone • • 1.5 parts by weight of dimethylformamide
(§2) Emulsifier: 0.5 part by weight of alkylaryl polyglycol ether
(§3) To produce a suitable preparation of active compound, 1 part by weight of active compound is mixed with the stated amounts of solvents and emulsifier, and the concentrate is diluted with emulsifier-containing water to the desired concentration.
Discs of Chinese cabbage (Brassica pekinensis) which are infested by all stages of the green peach aphid (Myzus persicae) are sprayed with a preparation of active compound of the desired concentration.
(§4) After the desired period of time, the effect in % is determined. 100% means that all aphids have been killed; 0% means that none of the aphids have been killed.
On this test, for example, the following compounds of the Preparation Examples show good activity: see table

[2] = tested on: green peach aphid (Myzus persicae); experiment: Myzus test; oral (MYZUPE O); conditions: 100 ppm, oral (sucking at the preparation)
Method: Myzus Test; Oral; (MYZUPE O)
Solvent: 80 parts by weight of acetone
To produce a suitable preparation of active compound, 1 part by weight of active compound is mixed with the stated amounts of solvent and emulsifier, and the concentrate is diluted with water to the desired concentration.
Containers are populated with all stages of the green peach aphid (Myzus persicae), the treatment is by sucking at the preparation of active compound of the desired concentration.
as §4
(§5) In this test, for example, the following compounds of the Preparation Examples show good activity: see table

[3] = tested on: greenhouse red spider mite (Tetranychus urticae); experiment: Tetranychus test, OP-resistant (TETRUR spray treatment); conditions: 500 g/ha, sprayed bean leaf discs
Method: Tetranychus Test, OP-Resistant (TETRUR Spray Treatment)
as §1, §2, §3
Discs of bean leaves (Phaseolus vulgaris) which are infested by all stages of the greenhouse red spider mite (Tetranychus urticae) are sprayed with a preparation of active compound of the desired concentration.
After the desired period of time, the effect in % is determined. 100% means that all spider mites have been killed; 0% means that none of the spider mites have been killed.
(§6) In this test, for example, the following compounds of the Preparation Examples show good activity: see table.

[4] = tested on: larvae of the mustard beetle (Phaedon cochleariae); experiment: Phaedon cochleariae test (PHAECO spray treatment); conditions: 500 g/ha, sprayed Chinese cabbage discs
Method: Phaedon cochleariae Test (PHAECO Spray Treatment)
as §1, §2, §3
After the desired period of time, the effect in % is determined. 100% means that all beetle larvae have been killed; 0% means that none of the beetle larvae have been killed.
as §5

[5] = tested on: caterpillars of the armyworm (Spodoptera frugiperda); experiment: Spodoptera frugiperda test (SPODFR spray treatment); conditions: 500 g/ha, sprayed maize leaf discs
Method: Spodoptera frugiperda Test (SPODFR Spray Treatment)
as §1, §2, §3
Discs of maize leaves (Zea mays) are sprayed with a preparation of active compound of the desired concentration and, after drying, populated with caterpillars of the armyworm (Spodoptera frugiperda).
After the desired period of time, the effect in % is determined. 100% means that all caterpillars have been killed; 0% means that none of the caterpillars have been killed.
as §5

[6] = tested on: green peach aphid (Myzus persicae); experiment: Myzus persicae test, hydroponic treatment (MYZUPE sys.); conditions: 20 ppm, hydroponic treatment of pea plant
Method: Myzus persicae Test, Hydroponic Treatment (MYZUPE sys.)
(§7) Solvent: 7 parts by weight of dimethylformamide
(§8) Emulsifier: 2 parts by weight of alkylaryl polyglycol ether
(§9) To produce a suitable preparation of active compound, 1 part by weight of active compound is mixed with the stated amounts of solvent and emulsifier, and the concentrate is diluted with emulsifier-containing water to the desired concentration.
The preparation of active compound is mixed with water. The stated concentration refers to the amount of active compound per volume unit of […] (mg/l=ppm). The treated water is filled into containers housing a pea plant (Pisum sativum) which is then infected with the green peach aphid (Myzus persicae).
(§10) After the desired period of time, the kill in % is determined. 100% means that all aphids have been killed; 0% means that none of the aphids have been killed.
as §6

[7] = tested on: cotton aphid (Aphis gossypii); experiment: Aphis gossypii test (APHIGO), leaf dipping; conditions: cotton leaves dipped
Method: (§11) Aphis gossypii Test (APHIGO)
Solvent: 7 parts by weight of dimethylformrnamide
as §8, §9
Cotton leaves (Gossypium hirsutum) which are heavily infested by the cotton aphid (Aphis gossypii) are treated by being dipped into the preparation of active compound of the desired concentration.
as §10, §6

Lucilia cuprina larvae = experiment: Lucilia cuprina test (LUCICU); conditions: 100 ppm, treated horse meat
Method: Lucilia cuprina Test (LUCICU)
Solvent: dimethyl sulphoxide
To produce a suitable preparation of active compound, 1 part by weight of active compound is mixed with the stated amount of water and the concentrate is diluted with water to the desired concentration.
Containers containing horse meat treated with the preparation of active compound of the desired concentration are populated with Lucilia cuprina larvae.
After the desired period of time, the kill in % is determined. 100% means that all larvae have been killed; 0% means that none of the larvae have been killed.
as §6

[8] = tested on: cotton aphid (Aphis gossypii); experiment: Aphis gossypii test (APHIGO), spraying; conditions: 12 g/ha, cotton leaves sprayed
Method: as §11, §7
Emulsifier: 1 part by weight of alkylaryl polyglycol ether
as §9
Cotton leaves (Gossypium hirsutum) which are heavily infested by the cotton aphid (Aphis gossypii) are treated by spraying with the preparation of active compound at the stated concentration.
After the desired period of time, the kill in % is determined. 100% means that all animals have been killed; 0% means that none of the animals have been killed.
as §5

CC1CC2OC(=O)C=C2N(Cc2ccc(Cl)nc2)C1 (single isomer, unassigned) [Example I-12a, 4-[(6-Chloropyridin-3-yl)methyl]-6-methyl-5,6,7,7a-tetrahydrofuro[3,2-b]-pyridin-2(4H)-on]
pest or weed control at 500 g/ha [1]: 100% | Kill rate in % after 5 days [2]: 100%

CC1CC2OC(=O)C=C2N(Cc2ccc(Cl)nc2)C1 (single isomer, unassigned) [Example I-12b, 4-[(6-Chloropyridin-3-yl)methyl]-6-methyl-5,6,7,7a-tetrahydrofuro[3,2-b]-pyridin-2(4H)-on]
Kill rate in % after 5 days [1]: 100% | Kill rate in % after 5 days [2]: 100% | Kill rate in % after 6 days [3]: 90%

O=C1C=C2C(CC(Cl)CN2Cc2ccc(Cl)nc2)O1 (single isomer, unassigned) [Example I-17a, 4-[(6-Chloropyridin-3-yl)methyl]-6-chloro-5,6,7,7a-tetrahydrofuro[3,2-b]-pyridin-2(4H)-one]
pest or weed control at 500 g/ha [1]: 100% | Kill rate in % after 7 days [4]: 100%

O=C1C=C2C(CC(Cl)CN2Cc2ccc(Cl)nc2)O1 (single isomer, unassigned) [Example I-17b, 4-[(6-Chloropyridin-3-yl)methyl]-6-chloro-5,6,7,7a-tetrahydrofuro[3,2-b]-pyridin-2(4H)-one]
Kill rate in % after 5 days [1]: 90%

O=C1C=C2C(OCCN2Cc2ccc(Cl)nc2)O1 (stereo not shown) [Example I-1, 1-[(6-Chloropyridin-3-yl)methyl]-2,3-dihydro-1H-furo[2,3-b][1,4]oxazin-6(4aH)-one]
pest or weed control at 500 g/ha [1]: 100% | Kill rate in % after 5 days [2]: 100%

O=C1C=C2C(CCCN2Cc2ccc(Cl)nc2)O1 (stereo not shown) [Example I-2, 4-[(6-Chloropyridin-3-yl)methyl]-5,6,7,7a-tetrahydrofuro[3,2-b]pyridin-2(4H)-one]
pest or weed control at 500 g/ha [1]: 100% | Kill rate in % after 7 days [5]: 100% | Kill rate in % after 6 days [6]: 100% | Kill rate in % after 6 days ([7]; 20 ppm): 95% | Kill rate in % after 2 days (Lucilia cuprina larvae): 100% | Kill rate in % after 7 days [8]: 85%

O=C1C=C2[C@@H](CCCN2Cc2ccc(Cl)nc2)O1 [Example I-3]
pest or weed control at 500 g/ha [1]: 100% | Kill rate in % after 7 days [5]: 100% | Kill rate in % after 7 days [4]: 100%

O=C1C=C2[C@H](CCCN2Cc2ccc(Cl)nc2)O1 [Example I-4]
pest or weed control at 500 g/ha [1]: 100% | Kill rate in % after 7 days [4]: 100%

O=C1C=C2C(CC=CCN2Cc2ccc(Cl)nc2)O1 (stereo not shown) [Example I-6, 4-[(6-Chloropyridin-3-yl)methyl]-4,5,8,8a-tetrahydro-2H-furo[3,2-b]azepin-2-one]
pest or weed control at 500 g/ha [1]: 100% | Kill rate in % after 2 days (Lucilia cuprina larvae): 100%

O=C1C=C2C(CCCCN2Cc2ccc(Cl)nc2)O1 (stereo not shown) [Example I-7, 4-[(6-Chloropyridin-3-yl)methyl]-4,5,6,7,8,8a-hexahydro-2H-furo[3,2-b]-azepin-2-one]
pest or weed control at 500 g/ha [1]: 100% | Kill rate in % after 6 days [6]: 100% | Kill rate in % after 6 days ([7]; 100 ppm): 95%

O=C1OC2COCN(Cc3ccc(Cl)nc3)C2=C1Cl (stereo not shown) [Example I-8]
pest or weed control at 500 g/ha [1]: 100%

O=C1OC2CCCN(Cc3ccc(Cl)nc3)C2=C1Cl (stereo not shown) [Example I-9]
pest or weed control at 500 g/ha [1]: 100% | Kill rate in % after 6 days [6]: 100% | Kill rate in % after 6 days ([7]; 100 ppm): 90% | Kill rate in % after 2 days (Lucilia cuprina larvae): 80%

CC12CCCN(Cc3ccc(Cl)nc3)C1=CC(=O)O2 (stereo not shown) [Example I-10, 4-[(6-Chloropyridin-3-yl]methyl]-7a-methyl-5,6,7,7a-tetrahydrofuro[3,2-b]-pyridin-2(4H)-one]
pest or weed control at 500 g/ha [1]: 100%

O=CC1=C2C(CCCN2Cc2ccc(Cl)nc2)OC1=O (stereo not shown) [Example I-11, 3-Formyl-4-[(6-chloropyridin-3-yl)methyl]-5,6,7,7a-tetrahydrofuro [3,2-b]-pyridin-2(4H)-one]
pest or weed control at 500 g/ha [1]: 100%

O=C1CC2OC(=O)C=C2N(Cc2ccc(Cl)nc2)C1 (stereo not shown) [Example I-14]
pest or weed control at 500 g/ha [1]: 100% | Kill rate in % after 5 days [2]: 100%

O=C1C=C2C(CC(F)(F)CN2Cc2ccc(Cl)nc2)O1 (stereo not shown) [Example I-15]
pest or weed control at 500 g/ha [1]: 100%

O=C1C=C2C(CC=CN2Cc2ccc(Cl)nc2)O1 (stereo not shown) [Example I-18, 4-[(6-Chloropyridin-3-yl)methyl]-7,7a-dihydrofuro[3,2-b]pyridin-2(4H)-one]
pest or weed control at 500 g/ha [1]: 100%

O=C1C=C2C(O1)C(O)CCN2Cc1ccc(Cl)nc1 (stereo not shown) [Example I-19]
pest or weed control at 500 g/ha [1]: 100%

O=C1C=C2C(=CCCN2Cc2ccc(Cl)nc2)O1 [Example I-20, 4-[(6-Chloropyridin-3-yl)methyl]-5,6-dihydrofuro[3,2-b]pyridin-2(4H)-one]
pest or weed control at 500 g/ha [1]: 100% | Kill rate in % after 7 days [4]: 100%
